pIC50: −log10 of the molar value.
Experiments:
BTK = BTK (Homo sapiens, UniProt Q06187); assay: In vitro kinase assay (biochemical), BTK; settings: for pIC50: in vitro kinase assay; for selectivity for BTK over BLK (BTK/BLK selectivity): ratio of BLK and BTK IC50
BLK = BLK (Homo sapiens, UniProt P51451); assay: In vitro kinase assay, BLK; type: biochemical
ITK = target: T1, ITK (Homo sapiens, UniProt Q08881); assay: In vitro kinase assay, ITK; type: biochemical
T1 sequence (Q08881 1-620): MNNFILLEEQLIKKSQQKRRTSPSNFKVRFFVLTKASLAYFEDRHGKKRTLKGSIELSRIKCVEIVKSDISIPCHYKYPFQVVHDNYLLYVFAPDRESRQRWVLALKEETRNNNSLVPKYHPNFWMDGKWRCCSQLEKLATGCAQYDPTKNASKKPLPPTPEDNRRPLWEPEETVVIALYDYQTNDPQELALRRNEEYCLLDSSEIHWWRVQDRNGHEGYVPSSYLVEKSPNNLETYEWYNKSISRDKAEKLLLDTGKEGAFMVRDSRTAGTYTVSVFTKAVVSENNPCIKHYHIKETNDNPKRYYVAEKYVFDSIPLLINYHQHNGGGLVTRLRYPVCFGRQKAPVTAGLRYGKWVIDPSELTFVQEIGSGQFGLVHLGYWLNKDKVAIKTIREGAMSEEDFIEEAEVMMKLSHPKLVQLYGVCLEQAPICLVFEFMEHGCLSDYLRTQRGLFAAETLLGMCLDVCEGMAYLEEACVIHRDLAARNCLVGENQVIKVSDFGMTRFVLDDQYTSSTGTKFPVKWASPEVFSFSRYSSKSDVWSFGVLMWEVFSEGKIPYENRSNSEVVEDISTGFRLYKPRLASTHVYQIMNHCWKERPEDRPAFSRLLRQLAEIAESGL

HER2 = HER2 (Homo sapiens, UniProt P04626); assay: In vitro kinase assay, HER2; type: biochemical
HER2, sequence (P04626 23-1255): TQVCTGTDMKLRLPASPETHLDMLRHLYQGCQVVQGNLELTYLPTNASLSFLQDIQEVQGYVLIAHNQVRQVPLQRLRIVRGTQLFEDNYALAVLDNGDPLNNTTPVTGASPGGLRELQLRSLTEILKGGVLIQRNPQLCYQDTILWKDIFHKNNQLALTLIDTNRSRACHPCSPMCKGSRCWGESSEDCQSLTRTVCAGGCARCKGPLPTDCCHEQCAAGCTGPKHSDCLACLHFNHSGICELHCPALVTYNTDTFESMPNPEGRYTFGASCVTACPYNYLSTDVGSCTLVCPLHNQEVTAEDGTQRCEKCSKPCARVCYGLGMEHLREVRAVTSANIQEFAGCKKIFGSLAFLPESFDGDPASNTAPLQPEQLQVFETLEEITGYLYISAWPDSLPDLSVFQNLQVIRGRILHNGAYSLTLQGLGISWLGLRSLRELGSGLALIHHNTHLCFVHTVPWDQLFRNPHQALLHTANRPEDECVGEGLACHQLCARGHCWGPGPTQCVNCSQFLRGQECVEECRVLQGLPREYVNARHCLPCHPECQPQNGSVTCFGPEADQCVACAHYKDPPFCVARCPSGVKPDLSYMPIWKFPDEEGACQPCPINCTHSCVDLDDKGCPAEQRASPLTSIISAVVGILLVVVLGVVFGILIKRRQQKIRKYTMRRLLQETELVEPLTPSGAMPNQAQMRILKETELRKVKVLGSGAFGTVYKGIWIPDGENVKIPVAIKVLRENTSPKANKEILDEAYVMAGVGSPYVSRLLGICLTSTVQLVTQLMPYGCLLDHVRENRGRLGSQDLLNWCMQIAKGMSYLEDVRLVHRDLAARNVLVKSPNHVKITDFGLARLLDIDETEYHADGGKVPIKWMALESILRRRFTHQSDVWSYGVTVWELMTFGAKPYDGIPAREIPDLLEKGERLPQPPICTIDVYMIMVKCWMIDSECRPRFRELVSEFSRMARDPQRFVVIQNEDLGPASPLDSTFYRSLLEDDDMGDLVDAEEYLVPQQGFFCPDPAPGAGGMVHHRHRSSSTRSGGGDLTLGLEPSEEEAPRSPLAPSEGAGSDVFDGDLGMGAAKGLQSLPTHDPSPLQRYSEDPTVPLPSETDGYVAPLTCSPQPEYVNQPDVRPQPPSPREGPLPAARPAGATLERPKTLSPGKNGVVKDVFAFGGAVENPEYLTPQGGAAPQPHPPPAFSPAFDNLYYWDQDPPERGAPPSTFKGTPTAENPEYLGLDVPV

BTK, sequence (Q06187 whole entry): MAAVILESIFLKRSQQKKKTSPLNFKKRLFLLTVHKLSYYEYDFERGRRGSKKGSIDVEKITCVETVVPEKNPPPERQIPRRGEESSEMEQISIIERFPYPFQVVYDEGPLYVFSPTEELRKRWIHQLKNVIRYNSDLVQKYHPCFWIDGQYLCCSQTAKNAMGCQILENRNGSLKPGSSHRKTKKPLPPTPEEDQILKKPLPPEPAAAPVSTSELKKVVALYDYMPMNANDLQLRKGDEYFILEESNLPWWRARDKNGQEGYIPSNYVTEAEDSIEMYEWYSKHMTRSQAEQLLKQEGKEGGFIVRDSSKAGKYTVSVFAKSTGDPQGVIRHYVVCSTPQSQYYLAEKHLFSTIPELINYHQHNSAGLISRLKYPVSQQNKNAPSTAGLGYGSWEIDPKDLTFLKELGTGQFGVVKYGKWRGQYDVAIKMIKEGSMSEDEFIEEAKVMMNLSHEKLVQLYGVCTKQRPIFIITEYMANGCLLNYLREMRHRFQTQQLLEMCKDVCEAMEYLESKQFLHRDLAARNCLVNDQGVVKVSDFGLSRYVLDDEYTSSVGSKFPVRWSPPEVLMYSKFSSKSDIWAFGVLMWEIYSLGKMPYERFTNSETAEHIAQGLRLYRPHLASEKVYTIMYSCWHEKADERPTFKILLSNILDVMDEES
BLK, sequence (P51451 whole entry): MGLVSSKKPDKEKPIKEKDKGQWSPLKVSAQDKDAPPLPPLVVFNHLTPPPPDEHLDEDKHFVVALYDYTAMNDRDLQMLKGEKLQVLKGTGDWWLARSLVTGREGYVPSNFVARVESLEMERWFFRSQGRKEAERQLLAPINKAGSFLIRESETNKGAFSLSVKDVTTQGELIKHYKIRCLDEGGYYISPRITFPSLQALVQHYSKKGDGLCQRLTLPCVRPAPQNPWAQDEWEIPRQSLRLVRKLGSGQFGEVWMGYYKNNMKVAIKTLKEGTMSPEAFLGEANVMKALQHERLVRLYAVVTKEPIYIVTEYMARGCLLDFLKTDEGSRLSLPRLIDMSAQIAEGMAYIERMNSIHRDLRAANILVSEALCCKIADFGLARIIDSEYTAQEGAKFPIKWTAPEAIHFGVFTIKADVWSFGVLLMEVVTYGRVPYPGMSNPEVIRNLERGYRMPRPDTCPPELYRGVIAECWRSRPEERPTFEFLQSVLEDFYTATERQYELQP

| Structure (SMILES) | pIC50 (BTK) | pIC50 (BLK) | pIC50 (ITK) | pIC50 (HER2) | selectivity for BTK over BLK (BTK/BLK selectivity) (BTK) | improvement in affinity/potency towards BTK over the diastereomer (Ra, R) / (Ra)-3.1 (BTK; fold, BTK IC50 425 nM vs 3307 nM) |
| --- | --- | --- | --- | --- | --- | --- |
| C=CC(=O)N1CCC[C@H](n2cc(-c3ccc(Oc4ccccc4)cc3)c3c(N)ncnc32)C1 [3.5] | 7.76 | 7.25 | – | – | – | – |
| C=CC(=O)N1CCC[C@H](n2c(C)c(-c3ccc(Oc4ccccc4)cc3C)c3c(N)ncnc32)C1 (single isomer, unassigned) [(Sa)-3.2] | 5.41 | 5.76 | < 5.00 | < 5.00 | – | – |
| C=CC(=O)N1CCC[C@@H](n2cc(-c3ccc(Oc4ccccc4)cc3)c3c(N)ncnc32)C1 (racemic) [Rac] | 9.33 | 9.54 | – | 6.35 | – | – |
| C=CC(=O)N1CCCC(n2c(C)c(-c3ccc(C(=O)Nc4ccccn4)cc3C)c3c(N)ncnc32)C1 (single isomer, unassigned) [(Ra)-3.10] | 7.62 | 6.89 | – | – | – | – |
| C=CC(=O)N1CCCC(n2nc(-c3ccc(C(=O)Nc4ccccn4)cc3C)c3c(N)ncnc32)C1 (stereo not shown) [3.11] | 8.95 | 7.49 | – | – | 30 × | – |
| C=CC(=O)N1CCC[C@@H](n2c(C)c(-c3ccc(Oc4ccccc4)cc3C)c3c(N)ncnc32)C1 (single isomer, unassigned) [(Ra)-3.1] | 5.48 | 5.74 | < 5.00 | < 5.00 | – | – |
| C=CC(=O)N1CCC[C@@H](n2nc(-c3ccc(Oc4ccccc4)cc3C)c3c(N)ncnc32)C1 [3.7] | 8.26 | 8.08 | – | – | – | – |
| C=CC(=O)N1CCC[C@H](n2c(C)c(-c3ccc(Oc4ccccc4)cc3C)c3c(N)ncnc32)C1 (single isomer, unassigned) [(Ra)-3.2] | 6.37 | 6.73 | < 5.00 | < 5.00 | – | 10 × |
| C=CC(=O)N1CCC[C@H](n2c(C)c(-c3ccc(Oc4ccccc4)cc3)c3c(N)ncnc32)C1 [3.3] | 6.35 | 6.35 | – | – | – | – |
| C=CC(=O)N1CCC[C@@H](n2cc(-c3ccc(Oc4ccccc4)cc3)c3c(N)ncnc32)C1 [3.4] | 8.57 | 8.04 | – | – | – | – |
| C=CC(=O)N1CCC[C@@H](n2c(C)c(-c3ccc(Oc4ccccc4)cc3C)c3c(N)ncnc32)C1 (single isomer, unassigned) [(Sa)-3.1] | < 5.00 | 5.00 | < 5.00 | < 5.00 | – | – |
| C=CC(=O)N1CCCC(n2c(C)c(-c3ccc(C(=O)Nc4ccccn4)cc3C)c3c(N)ncnc32)C1 (single isomer, unassigned) [(Sa)-3.10] | 7.66 | 7.04 | – | – | – | – |
| C=CC(=O)N1CCCC(n2nc(-c3c(C)cc(Oc4ccccc4)cc3C)c3c(N)ncnc32)C1 (stereo not shown) [3.8] | 7.43 | 6.76 | – | – | – | – |
| C=CC(=O)N1CCC[C@@H](n2cc(-c3ccc(Oc4ccccc4)cc3C)c3c(N)ncnc32)C1 [3.6] | 8.19 | 7.85 | – | – | about 2 × | – |
